Measured values reported in US12448383B2, “Compounds and methods for treatment of viral infections” (priority 2022, dated 2025).

Columns and labels:
[1] = test system: SARS Coronavirus 2 recombinant with NanoLuc (SARS-CoV2-NLuc) in A549-hACE2 cells; assay: microbe, parasite or virus in culture; type: cell-based; details: A549; read-out: EC50 SARS CoV2 NanoLuc A549 384
[2] = test system: Caco-2 cells (clone C2BBe1); assay: CACO-2 permeability; type: in vitro ADME; parameters: unit not given here; details: for DM Caco2 A to B: apical to basolateral, donor pH 6.5, receiver pH 7.4; for DM Caco2 B to A: basolateral to apical
Outline: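 Caco-2 monolayers grown 21 days on collagen-coated transwells and checked for integrity by TEER. Donor buffer was HBSS/HEPES/glucose pH 6.5 with 200 μM BNPP; receiver was pH 7.4 with BSA. Compounds were dosed apically or basolaterally for A-to-B and B-to-A transport, with receiver sampling at 1 and 2 h, LC-MS/MS analysis and percent recovery.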

Plasma stability = type: in vitro ADME; parameters: unit not given here; details: 37° C., 2 μM substrate
Outline: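 Reaction mixture was sampled at 0.05, 0.5, 1, 2, 3 and 4 hr into quench solution containing internal standard, then centrifuged and diluted with water. Remaining analyte was measured by LC-MS on a Q-Exactive using a formic acid/acetonitrile gradient, with 5 ppm mass tolerance.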

[3] = CC50 MT4 cytotoxicity (Cell-Titer Glo); type: cell-based; details: human
Outline: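 Uninfected MT-4 and HEp-2 cells cultured 4-5 days at 37° C with 3-fold serially diluted compound (15 nM to 100,000 nM). Viability read by Cell-Titer Glo luminescence; untreated and 2 μM puromycin wells set 100% and 0%. CC50 from non-linear regression as concentration reducing viability by 50%.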

[4] = test system: Respiratory syncytial virus recombinant with luciferase (RSV-Luc5) in Normal Human Bronchial Epithelial (NHBE) cells; assay: microbe, parasite or virus in culture; type: cell-based; details: read-out: EC50 RSVFluc-NHBE 384 V2
[5] = test system: Respiratory syncytial virus recombinant with luciferase (RSV-Luc5) in HEp-2 cells; assay: microbe, parasite or virus in culture; type: cell-based; details: human respiratory syncytial virus, HEp-2, read-out: EC50 RSVFluc-Hep2 384 V2
[6] = GI S9 stability - no PMSF; type: in vitro ADME; details: pH 7.4; human intestinal S9, PMSF-free; read-out: GIS9-HUMAN-NoPMSF T1/2
Outline: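 Compounds were incubated at 2 μM with PMSF-free intestinal S9 (1 mg/mL protein) in 100 mM PBS, pH 7.4, sampling at 6 time points over 120 min. Parent disappearance and formation of the nucleoside metabolite Reference Compound A were quantified by LC-MS (Q-Exactive) using analyte/internal standard peak area ratios.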

Row | Compound | EC50 [1] | logD (physchem) | DM Caco2 A to B [2] | DM Caco2 B to A [2] | STA Human Plasma 37 (Plasma stability) | CC50 [3] | EC50 [4] | EC50 [5] | half-life at 2 µM [6]
1 | COc1ccc(CCOC(=O)OC[C@H]2O[C@@](C#N)(c3ccc4c(N)ncnn34)[C@H](O)[C@@H]2O)cc1 [Compound 112, ((2R,3S,4R,5R)-5-(4-aminopyrrolo[2,1-f][1,2,4]triazin-7-yl)-5-cyano-3,4-dihydroxytetrahydrofuran-2-yl)methyl (4-methoxyphenethyl) carbonate] | 2110 nM | 1.8 | 2.53 | 15.81 | 28.8 | > 50000 nM | 454 nM | 181 nM | 1.77 min
2 | CC1(COC(=O)OC[C@H]2O[C@@](C#N)(c3ccc4c(N)ncnn34)[C@H](O)[C@@H]2O)CC1 [Compound 114, ((2R,3S,4R,5R)-5-(4-aminopyrrolo[2,1-f][1,2,4]triazin-7-yl)-5-cyano-3,4-dihydroxytetrahydrofuran-2-yl)methyl ((1-methylcyclopropyl)methyl) carbonate] | 1120 nM | 1.5 | 2.07 | 11.26 | 26.8 | > 50000 nM | 966 nM | 123 nM | 1.21 min
3 | N#C[C@@]1(c2ccc3c(N)ncnn23)O[C@H](COC(=O)OCC2CC(F)(F)C2)[C@@H](O)[C@H]1O [Compound 115, ((2R,3S,4R,5R)-5-(4-aminopyrrolo[2,1-f][1,2,4]triazin-7-yl)-5-cyano-3,4-dihydroxytetrahydrofuran-2-yl)methyl ((3,3-difluorocyclobutyl)methyl) carbonate] | 1760 nM | 1.4 | 0.91 | 8.32 | 41.2 | > 50000 nM | 990 nM | 228 nM | 0.581 min
4 | N#C[C@@]1(c2ccc3c(N)ncnn23)O[C@H](COC(=O)OCC2(c3ccccc3)CC2)[C@@H](O)[C@H]1O [Compound 116, ((2R,3S,4R,5R)-5-(4-aminopyrrolo[2,1-f][1,2,4]triazin-7-yl)-5-cyano-3,4-dihydroxytetrahydrofuran-2-yl)methyl ((1-phenylcyclopropyl)methyl) carbonate] | 822 nM | 2.1 | 4.18 | 17.53 | 26.4 | > 50000 nM | 864 nM | 321 nM | 0.63 min
5 | CC1(C)CC(COC(=O)OC[C@H]2O[C@@](C#N)(c3ccc4c(N)ncnn34)[C@H](O)[C@@H]2O)C1 [Compound 117, ((2R,3S,4R,5R)-5-(4-aminopyrrolo[2,1-f][1,2,4]triazin-7-yl)-5-cyano-3,4-dihydroxytetrahydrofuran-2-yl)methyl ((3,3-dimethylcyclobutyl)methyl) carbonate] | 778 nM | 2.3 | 6.18 | 10.53 | 86 | > 50000 nM | 1380 nM | 494 nM | 0.616 min
6 | N#CC1(COC(=O)OC[C@H]2O[C@@](C#N)(c3ccc4c(N)ncnn34)[C@H](O)[C@@H]2O)CC1 [Compound 118, ((2R,3S,4R,5R)-5-(4-aminopyrrolo[2,1-f][1,2,4]triazin-7-yl)-5-cyano-3,4-dihydroxytetrahydrofuran-2-yl)methyl ((l-cyanocyclopropyl)methyl) carbonate] | 6800 nM | 0.7 | 0.07 | 1.67 | 59.4 | > 50000 nM | 1820 nM | 1760 nM | 4.12 min
7 | N#CCC1(COC(=O)OC[C@H]2O[C@@](C#N)(c3ccc4c(N)ncnn34)[C@H](O)[C@@H]2O)CC1 [Compound 119, ((2R,3S,4R,5R)-5-(4-aminopyrrolo[2,1-f][1,2,4]triazin-7-yl)-5-cyano-3,4-dihydroxytetrahydrofuran-2-yl)methyl ((1-(cyanomethyl)cyclopropyl)methyl) carbonate] | 8820 nM | 0.9 | 0.07 | 1.91 | 40.7 | > 50000 nM | 2190 nM | 2200 nM | 2.98 min
8 | N#C[C@@]1(c2ccc3c(N)ncnn23)O[C@H](COC(=O)OCC2(C(F)(F)F)CC2)[C@@H](O)[C@H]1O [Compound 120, ((2R,3S,4R,5R)-5-(4-aminopyrrolo[2,1-f][1,2,4]triazin-7-yl)-5-cyano-3,4-dihydroxytetrahydrofuran-2-yl)methyl ((1-(trifluoromethyl)cyclopropyl)methyl) carbonate] | 1410 nM | 1.6 | 0.77 | 8.35 | 38.7 | > 50000 nM | 1260 nM | 816 nM | 0.605 min
9 | N#CC12CC(COC(=O)OC[C@H]3O[C@@](C#N)(c4ccc5c(N)ncnn45)[C@H](O)[C@@H]3O)(C1)C2 [Compound 121, ((2R,3S,4R,5R)-5-(4-aminopyrrolo[2,1-f][1,2,4]triazin-7-yl)-5-cyano-3,4-dihydroxytetrahydrofuran-2-yl)methyl ((3-cyanobicyclo[1.1.1]pentan-1-yl)methyl) carbonate] | 7970 nM | 1.1 | 0.08 | 4.15 | 107.7 | > 50000 nM | 1560 nM | 1510 nM | 1.58 min
10 | CC1(COC(=O)OC[C@H]2O[C@@](C#N)(c3ccc4c(N)ncnn34)[C@H](O)[C@@H]2O)CCCC1 [Compound 123, ((2R,3S,4R,5R)-5-(4-aminopyrrolo[2,1-f][1,2,4]triazin-7-yl)-5-cyano-3,4-dihydroxytetrahydrofuran-2-yl)methyl ((1-methylcyclopentyl)methyl) carbonate] | 1160 nM | 2.2 | 3.18 | 9.88 | 96.5 | > 50000 nM | 1810 nM | 720 nM | 0.615 min
11 | CCCCCCCCCCOC(=O)OC[C@H]1O[C@@](C#N)(c2ccc3c(N)ncnn23)[C@H](O)[C@@H]1O [Compound 124, ((2R,3S,4R,5R)-5-(4-aminopyrrolo[2,1-f][1,2,4]triazin-7-yl)-5-cyano-3,4-dihydroxytetrahydrofuran-2-yl)methyl decyl carbonate] | 1140 nM | 3.7 | 0.08 | 7.35 | 192.3 | 27600 nM | 625 nM | 723 nM | 0.744 min
12 | N#C[C@@]1(c2ccc3c(N)ncnn23)O[C@H](COC(=O)OC23CC4CC(CC(C4)C2)C3)[C@@H](O)[C@H]1O [Compound 154, (3S,5S,7S)-adamantan-1-yl (((2R,3S,4R,5R)-5-(4-aminopyrrolo[2,1-f][1,2,4]-triazin-7-yl)-5-cyano-3,4-dihydroxytetrahydrofuran-2-yl)methyl) carbonate] | 34000 nM | 2.6 | 2.08 | 14.67 | 1584 | > 50000 nM | 11000 nM | 11700 nM | 279 min
13 | CC1=CCC(C(C)(C)OC(=O)OC[C@H]2O[C@@](C#N)(c3ccc4c(N)ncnn34)[C@H](O)[C@@H]2O)CC1 (stereo partly drawn) [Compound 155, ((2R,3S,4R,5R)-5-(4-aminopyrrolo[2,1-f][1,2,4]triazin-7-yl)-5-cyano-3,4-dihydroxytetrahydrofuran-2-yl)methyl (2-(4-methylcyclohex-3-en-1-yl)propan-2-yl) carbonate] | 3190 nM | 2.8 | 3.06 | 10.35 | 1584 | > 50000 nM | 1120 nM | 1570 nM | 77.5 min
